Data: patent US12077503B2, “Substituted cyclic amides and their use as herbicides” (FMC CORPORATION, priority 2015, dated 2024)

Assays:
Format in all cases: in vivo
[1] = system: giant foxtail (Setaria faberii); assay: Test A preemergence; conditions: Setaria faberi, pre-emergence, 240 h, 0 to 100 scale where 0 is no effect and 100 is complete control, read-out: Foxtail, Giant plant response rating; for pest or weed control at 31 g/ha: 31 g ai/ha, Preemergence; for pest or weed control at 125 g/ha: 125 g ai/ha, preemergence, visual injury rating, approximately 10 d
Summary of the method: (§1)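 Greenhouse, ~10 d after spray; visual injury vs untreated controls, 0 = no effect, 100 = complete control. Preemergence: directed soil spray over planted seeds. Postemergence: plants 2–10 cm, 1–2 leaf stage. Loam/sand blend. Compound in non-phytotoxic solvent with surfactant.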

[2] = system: pigweed (Amaranthus retroflexus); assay: Test A preemergence; conditions: Amaranthus retroflexus, pre-emergence, 240 h, 0 to 100 scale where 0 is no effect and 100 is complete control, read-out: Pigweed plant response rating; for pest or weed control at 31 g/ha: 31 g ai/ha, Preemergence; for pest or weed control at 125 g/ha: 125 g ai/ha, preemergence, visual injury rating, approximately 10 d
[3] = system: Kochia (Kochia scoparia); assay: Test A preemergence; conditions: Bassia scoparia, pre-emergence, 240 h, 0 to 100 scale where 0 is no effect and 100 is complete control, read-out: Kochia plant response rating; for pest or weed control at 31 g/ha: 31 g ai/ha, Preemergence; for pest or weed control at 125 g/ha: 125 g ai/ha, preemergence, visual injury rating, approximately 10 d
Summary of the method: as §1

[4] = system: ragweed (common ragweed, Ambrosia elatior); assay: Test A preemergence; conditions: Ambrosia artemisiifolia, pre-emergence, 240 h, 0 to 100 scale where 0 is no effect and 100 is complete control, read-out: Ragweed plant response rating; for pest or weed control at 31 g/ha: 31 g ai/ha, Preemergence; for pest or weed control at 125 g/ha: 125 g ai/ha, preemergence, visual injury rating, approximately 10 d
Summary of the method: as §1

[5] = system: barnyardgrass (Echinochloa crus-galli); assay: Test A preemergence; conditions: Echinochloa crus-galli, pre-emergence, 240 h, 0 to 100 scale where 0 is no effect and 100 is complete control, read-out: Barnyardgrass plant response rating; for pest or weed control at 31 g/ha: 31 g ai/ha, Preemergence; for pest or weed control at 125 g/ha: 125 g ai/ha, preemergence, visual injury rating, approximately 10 d
Summary of the method: as §1

[6] = system: ryegrass, Italian (Italian ryegrass, Lolium multiflorum); assay: Test A preemergence; conditions: Lolium multiflorum, pre-emergence, 240 h, 0 to 100 scale where 0 is no effect and 100 is complete control, read-out: Ryegrass, Italian plant response rating; for pest or weed control at 31 g/ha: 31 g ai/ha, Preemergence; for pest or weed control at 125 g/ha: 125 g ai/ha, preemergence, visual injury rating, approximately 10 d
Summary of the method: as §1

[7] = system: giant foxtail (Setaria faberii); assay: Test A postemergence; conditions: Setaria faberi, post-emergence, 240 h, read-out: Foxtail, Giant plant response rating (0 to 100 scale); for pest or weed control at 125 g/ha: 125 g ai/ha, postemergence, visual injury vs untreated controls after approx. 10 d, 0 = no effect, 100 = complete control; for pest or weed control at 31 g/ha: Postemergence, 31 g ai/ha, 0 is no effect, 100 is complete control
Summary of the method: as §1

[8] = system: pigweed (Amaranthus retroflexus); assay: Test A postemergence; conditions: Amaranthus retroflexus, post-emergence, 240 h, read-out: Pigweed plant response rating (0 to 100 scale); for pest or weed control at 125 g/ha: 125 g ai/ha, postemergence, visual injury vs untreated controls after approx. 10 d, 0 = no effect, 100 = complete control; for pest or weed control at 31 g/ha: Postemergence, 31 g ai/ha, 0 is no effect, 100 is complete control
Summary of the method: as §1

[9] = system: Galium (catchweed bedstraw, Galium aparine); assay: Test A postemergence; conditions: Galium, post-emergence, 240 h, read-out: Galium plant response rating (0 to 100 scale); for pest or weed control at 125 g/ha: 125 g ai/ha, postemergence, visual injury vs untreated controls after approx. 10 d, 0 = no effect, 100 = complete control; for pest or weed control at 31 g/ha: Postemergence, 31 g ai/ha, 0 is no effect, 100 is complete control
Summary of the method: as §1

[10] = system: wheat (Triticum aestivum); assay: Test A postemergence; conditions: Triticum aestivum, post-emergence, 240 h, Postemergence, 31 g ai/ha; 0 is no effect, 100 is complete control; read-out: Wheat plant response rating (0 to 100 scale)
Summary of the method: as §1

[11] = system: Kochia (Kochia scoparia); assay: Test A postemergence; conditions: Bassia scoparia, post-emergence, 240 h, read-out: Kochia plant response rating (0 to 100 scale); for pest or weed control at 125 g/ha: 125 g ai/ha, postemergence, visual injury vs untreated controls after approx. 10 d, 0 = no effect, 100 = complete control; for pest or weed control at 31 g/ha: Postemergence, 31 g ai/ha, 0 is no effect, 100 is complete control
Summary of the method: as §1

[12] = system: ragweed (common ragweed, Ambrosia elatior); assay: Test A postemergence; conditions: Ambrosia artemisiifolia, post-emergence, 240 h, read-out: Ragweed plant response rating (0 to 100 scale); for pest or weed control at 125 g/ha: 125 g ai/ha, postemergence, visual injury vs untreated controls after approx. 10 d, 0 = no effect, 100 = complete control; for pest or weed control at 31 g/ha: Postemergence, 31 g ai/ha, 0 is no effect, 100 is complete control
Summary of the method: as §1

[13] = system: blackgrass (Alopecurus myosuroides); assay: Test A postemergence; conditions: Alopecurus myosuroides, post-emergence, 240 h, read-out: Blackgrass plant response rating (0 to 100 scale); for pest or weed control at 125 g/ha: 125 g ai/ha, postemergence, visual injury vs untreated controls after approx. 10 d, 0 = no effect, 100 = complete control; for pest or weed control at 31 g/ha: Postemergence, 31 g ai/ha, 0 is no effect, 100 is complete control
Summary of the method: as §1

[14] = system: barnyardgrass (Echinochloa crus-galli); assay: Test A postemergence; conditions: Echinochloa crus-galli, post-emergence, 240 h, read-out: Barnyardgrass plant response rating (0 to 100 scale); for pest or weed control at 125 g/ha: 125 g ai/ha, postemergence, visual injury vs untreated controls after approx. 10 d, 0 = no effect, 100 = complete control; for pest or weed control at 31 g/ha: Postemergence, 31 g ai/ha, 0 is no effect, 100 is complete control
Summary of the method: as §1

[15] = system: corn (Zea mays); assay: Test A postemergence; conditions: Zea mays, post-emergence, 240 h, read-out: Corn plant response rating (0 to 100 scale); for plant injury at 125 g/ha: 125 g ai/ha, postemergence, visual injury vs untreated controls after approx. 10 d, 0 = no effect, 100 = complete control; for plant injury at 31 g/ha: Postemergence, 31 g ai/ha, 0 is no effect, 100 is complete control
Summary of the method: as §1

[16] = system: ryegrass, Italian (Italian ryegrass, Lolium multiflorum); assay: Test A postemergence; conditions: Lolium multiflorum, post-emergence, 240 h, read-out: Ryegrass, Italian plant response rating (0 to 100 scale); for pest or weed control at 125 g/ha: 125 g ai/ha, postemergence, visual injury vs untreated controls after approx. 10 d, 0 = no effect, 100 = complete control; for pest or weed control at 31 g/ha: Postemergence, 31 g ai/ha, 0 is no effect, 100 is complete control
Summary of the method: as §1

[17] = system: ducksalad (Heteranthera limosa); assay: Test B flooded paddy test; conditions: Heteranthera limosa, 250 g ai/ha, Flood; 0 to 100 scale where 0 is no effect and 100 is complete control; read-out: Ducksalad plant response rating
Summary of the method: (§2)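 Plants at 2-leaf stage flooded to 3 cm above soil, with compounds applied directly to paddy water and that depth maintained. Plants kept in greenhouse 13–15 d. Visual rating versus controls on a 0 (no effect) to 100 (complete control) scale.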

[18] = system: rice (Oryra sativa); assay: Test B flooded paddy test; conditions: Oryza sativa, 250 g ai/ha, Flood; 0 to 100 scale where 0 is no effect and 100 is complete control; read-out: Rice plant response rating
Summary of the method: as §2

[19] = system: sedge, umbrella (small-flower umbrella sedge, Cyperus difformis); assay: Test B flooded paddy test; conditions: Cyperus difformis, 250 g ai/ha, Flood; 0 to 100 scale where 0 is no effect and 100 is complete control; read-out: Sedge, Umbrella plant response rating
Summary of the method: as §2

[20] = system: barnyardgrass (Echinochloa crus-galli); assay: Test B flooded paddy test; conditions: Echinochloa crus-galli, 250 g ai/ha, Flood; 0 to 100 scale where 0 is no effect and 100 is complete control; read-out: Barnyardgrass plant response rating
Summary of the method: as §2

O=C1NC[C@H](c2ccc(Cl)c(F)c2)[C@H]1C(=O)Nc1cccc(F)c1F [Compound 1262]
0%: pest or weed control at 31 g/ha [2] | pest or weed control at 31 g/ha [4] | pest or weed control at 125 g/ha [4] | pest or weed control at 31 g/ha [6] | pest or weed control at 125 g/ha [6] | plant injury at 31 g/ha [10] | pest or weed control at 31 g/ha [12] | pest or weed control at 31 g/ha [13] | pest or weed control at 31 g/ha [16] | pest or weed control at 250 g/ha [19]
30%: pest or weed control at 31 g/ha [8] | pest or weed control at 31 g/ha [9] | pest or weed control at 125 g/ha [12]
90%: pest or weed control at 31 g/ha [1] | pest or weed control at 125 g/ha [1] | pest or weed control at 125 g/ha [5] | pest or weed control at 125 g/ha [14]
80%: pest or weed control at 125 g/ha [7]
100%: pest or weed control at 250 g/ha [17]
10%: pest or weed control at 250 g/ha [18]
20%: pest or weed control at 31 g/ha [3] | pest or weed control at 31 g/ha [11] | plant injury at 31 g/ha [15] | pest or weed control at 125 g/ha [16]
50%: pest or weed control at 125 g/ha [2] | pest or weed control at 125 g/ha [11] | pest or weed control at 125 g/ha [13]
65%: pest or weed control at 250 g/ha [20]
60%: pest or weed control at 125 g/ha [3] | plant injury at 125 g/ha [15]
70%: pest or weed control at 31 g/ha [5] | pest or weed control at 31 g/ha [7] | pest or weed control at 125 g/ha [8] | pest or weed control at 125 g/ha [9] | pest or weed control at 31 g/ha [14]

Cn1ccc2ccc([C@H]3CNC(=O)[C@@H]3C(=O)Nc3cccc(F)c3F)cc21 [Compound 1263]
0%: pest or weed control at 31 g/ha [1] | pest or weed control at 125 g/ha [1] | pest or weed control at 31 g/ha [2] | pest or weed control at 125 g/ha [2] | pest or weed control at 31 g/ha [3] | pest or weed control at 125 g/ha [3] | pest or weed control at 31 g/ha [4] | pest or weed control at 125 g/ha [4] | pest or weed control at 31 g/ha [5] | pest or weed control at 125 g/ha [5] | pest or weed control at 31 g/ha [6] | pest or weed control at 125 g/ha [6] | pest or weed control at 125 g/ha [7] | pest or weed control at 31 g/ha [7] | pest or weed control at 125 g/ha [8] | pest or weed control at 31 g/ha [8] | pest or weed control at 125 g/ha [9] | pest or weed control at 31 g/ha [9] | plant injury at 31 g/ha [10] | pest or weed control at 125 g/ha [11] | pest or weed control at 31 g/ha [11] | pest or weed control at 125 g/ha [12] | pest or weed control at 31 g/ha [12] | pest or weed control at 125 g/ha [13] | pest or weed control at 31 g/ha [13] | pest or weed control at 125 g/ha [14] | pest or weed control at 31 g/ha [14] | plant injury at 125 g/ha [15] | plant injury at 31 g/ha [15] | pest or weed control at 125 g/ha [16] | pest or weed control at 31 g/ha [16] | pest or weed control at 250 g/ha [18] | pest or weed control at 250 g/ha [19] | pest or weed control at 250 g/ha [20]
30%: pest or weed control at 250 g/ha [17]
